Columns and labels:
Type in all cases: in vivo, nude/nude mice
GP2D cells = test: GP2D TGI MDS 200108-807 colorectal cancer xenograft, tumor volumes; conditions: for Average Tumor Volumes: 30 mg/kg BID Daily
Experimental: (§1) Immunocompromised nude/nude mice are inoculated in the right hind flank with cells harboring a KRas G12D mutation. When tumor volumes reach between 200-400 mm^3 in size, the mice are divided into four to five groups of 5 mice each. The first group is administered vehicle only. […] The fourth or last groups are administered the single agent dose of the KRas G12D inhibitor using the twice daily schedule and/or the 2 sequential days followed by 5 days off schedule in combination with the single agent dose of one of the EGFR inhibitors. […] Tumor volumes are measured using a caliper every two-three days and tumor volumes are calculated by the formula: […].
(§2) 20 to 30 nude/nude mice per study were inoculated in the right hind limb with 5×10^6 LS180 cells, AsPC-1 cells, GP2D cells, Panc 02.03 cells, SW1990 cells, or SNU-1033 cells.
Experimental Procedures. 20 nude/nude mice were inoculated with GP2D cells in the right hind flank. When the tumors reached ˜300 mm^3 four treatment groups were established with five mice per group.

SNU-1033 cells = test: SNU-1033 TGI 46 colorectal cancer xenograft, tumor volumes; conditions: for Average Tumor Volumes: 30 mg/kg BID 2x/week
Experimental: as §1, §2
Experimental Procedures. 20 nude/nude mice were inoculated with SNU-1033 cells in the right hind flank. When the tumors reached ˜300 mm^3 four treatment groups were established with five mice per group.

AsPC-1 cells [1] = test: AsPC-1 TGI 26 pancreatic cancer xenograft, tumor volumes; conditions: for Average Tumor Volumes: 30 mg/kg IP BID daily
Experimental: as §1
Experimental Procedures. 20 nude/nude mice were inoculated with AsPC-1 cells in the right hind flank. When the tumors reached ˜200 mm^3 four treatment groups were established with five mice per group.

LS180 cells = test: LS180 colon cancer xenograft, tumor volumes; conditions: for tumor growth inhibition: 30 mg/kg BID, single agent, Day 15
Experimental: as §1, §2
Experimental Procedures. 25 nude/nude mice were inoculated with LS180 cells in the right hind flank. When the tumors reached ˜250 mm^3 five treatment groups were established with five mice per group.

AsPC-1 cells [2] = test: AsPC-1 TGI-42 pancreatic cancer xenograft, tumor volumes
Experimental: Immunocompromised nude/nude mice are inoculated in the right hind flank with cells harboring a KRas G12D mutation. When tumor volumes reach between 200-400 mm^3 in size, the mice are divided into four to five groups of 5 mice each. The first group is administered vehicle only. […] The fourth or last groups are administered the single agent dose of the KRas G12D inhibitor using the twice daily schedule and/or the 2 sequential days followed by 5 days off schedule in combination with the single agent dose of one of the EGFR inhibitors. The treatment period varies from cell line to cell line but typically is between 15-40 days. Tumor volumes are measured using a caliper every two-three days and tumor volumes are calculated by the formula: […].
as §2
Experimental Procedures. 30 nude/nude mice were inoculated with AsPC-1 cells in the right hind flank. When the tumors reached ˜300 mm^3 six treatment groups were established with five mice per group.

SW1990 cells = test: SW1990 TGI MDS #200407-807 pancreatic cancer xenograft, tumor volumes; conditions: for Average Tumor Volumes: 30 mg/kg BID Daily
Experimental: as §1, §2
Experimental Procedures. 30 nude/nude mice were inoculated with SW1990 cells in the right hind flank. When the tumors reached ˜300 mm^3 six treatment groups were established with five mice per group.

Panc 02.03 = Panc 02.03 TGI-43 pancreatic cancer xenograft (Table 5), tumor volumes; conditions: for Average Tumor Volumes: 30 mg/kg BID 2x/week
Experimental: as §1
20 to 30 nude/nude mice per study were inoculated in the right hind limb with 5×10^6 LS180 cells, AsPC-1 cells, GP2D cells, Panc 02.03 cells, SW1990 cells, or SNU-1033 cells. […]

[3] = 30 mg/kg BID 2x/week, Study Day 1
[4] = 30 mg/kg BID Daily, Study Day 1

C#Cc1c(F)ccc2cc(O)cc(-c3ncc4c(N5C[C@H]6CC[C@@H](C5)N6)nc(OC[C@@]56CCCN5C[C@H](F)C6)nc4c3F)c12 [MRTX1133, 4-(4-((1R,5S)-3,8-diazabicyclo[3.2.1]octan-3-yl)-8-fluoro-2-(((2R,7aS)-2-fluorohexahydro-1H-pyrrolizin-7a-yl)methoxy)pyrido[4,3-d]pyrimidin-7-yl)-5-ethynyl-6-fluoronaphthalen-2-ol]
Average Tumor Volumes (GP2D cells; Study Day 2): 341.3 mm^3 | Average Tumor Volumes (GP2D cells; Study Day 6): 282.98 mm^3 | Average Tumor Volumes (GP2D cells; Study Day 9): 237.18 mm^3 | Average Tumor Volumes (GP2D cells; Study Day 13): 244.1 mm^3 | Average Tumor Volumes (GP2D cells; Study Day 16): 198.725 mm^3 | Average Tumor Volumes (GP2D cells; Study Day 20): 288.05 mm^3 | Average Tumor Volumes (GP2D cells; Study Day 23): 339 mm^3 | Average Tumor Volumes (GP2D cells; Study Day 27): 385.85 mm^3 | Average Tumor Volumes (GP2D cells; Study Day 30): 394.05 mm^3 | tumor growth inhibition (GP2D cells; 30 mg/kg BID daily, single agent, Day 30): 96% | Average Tumor Volumes (SNU-1033 cells; Study Day 1): 298.92 mm^3 | Average Tumor Volumes (SNU-1033 cells; Study Day 5): 336.336 mm^3 | Average Tumor Volumes (SNU-1033 cells; Study Day 8): 431.99 mm^3 | Average Tumor Volumes (SNU-1033 cells; Study Day 12): 468.892 mm^3 | Average Tumor Volumes (SNU-1033 cells; Study Day 15): 529.222 mm^3 | Average Tumor Volumes (SNU-1033 cells; Study Day 19): 643.516 mm^3 | Average Tumor Volumes (SNU-1033 cells; Study Day 22): 703.368 mm^3 | Average Tumor Volumes (SNU-1033 cells; Study Day 26): 802.69 mm^3 | Average Tumor Volumes (SNU-1033 cells; Study Day 29): 838.708 mm^3 | Average Tumor Volumes (SNU-1033 cells; Study Day 33): 895.918 mm^3 | tumor growth inhibition (SNU-1033 cells; 30 mg/kg twice per week, single agent, Day 33): 47% | Average Tumor Volumes (AsPC-1 cells [1]; Study Day 0): 197.468 mm^3 | Average Tumor Volumes (AsPC-1 cells [1]; Study Day 4): 194.514 mm^3 | Average Tumor Volumes (AsPC-1 cells [1]; Study Day 7): 175.198 mm^3 | Average Tumor Volumes (AsPC-1 cells [1]; Study Day 11): 159.756 mm^3 | Average Tumor Volumes (AsPC-1 cells [1]; Study Day 14): 172.986 mm^3 | Average Tumor Volumes (AsPC-1 cells [1]; Study Day 18): 168.412 mm^3 | Average Tumor Volumes (AsPC-1 cells [1]; Study Day 21): 143.928 mm^3 | Average Tumor Volumes (AsPC-1 cells [1]; Study Day 25): 149.308 mm^3 | tumor regression (AsPC-1 cells [1]; 30 mg/kg twice daily, single agent, Day 25): −24% | Average Tumor Volumes (LS180 cells; [3]): 272.338 mm^3 | Average Tumor Volumes (LS180 cells; 30 mg/kg BID 2x/week, Study Day 4): 570.528 mm^3 | Average Tumor Volumes (LS180 cells; 30 mg/kg BID 2x/week, Study Day 8): 1134.668 mm^3 | Average Tumor Volumes (LS180 cells; 30 mg/kg BID 2x/week, Study Day 11): 1439.99 mm^3 | Average Tumor Volumes (LS180 cells; 30 mg/kg BID 2x/week, Study Day 15): 1899.832 mm^3 | Average Tumor Volumes (LS180 cells; [4]): 268.94 mm^3 | Average Tumor Volumes (LS180 cells; 30 mg/kg BID Daily, Study Day 4): 418.808 mm^3 | Average Tumor Volumes (LS180 cells; 30 mg/kg BID Daily, Study Day 8): 593.71 mm^3 | Average Tumor Volumes (LS180 cells; 30 mg/kg BID Daily, Study Day 11): 808.808 mm^3 | Average Tumor Volumes (LS180 cells; 30 mg/kg BID Daily, Study Day 15): 1197.106 mm^3 | tumor growth inhibition (LS180 cells; daily administration): 45% | tumor growth inhibition (LS180 cells; twice per week administration): 4% | Average Tumor Volumes (AsPC-1 cells [2]; [3]): 325.894 mm^3 | Average Tumor Volumes (AsPC-1 cells [2]; 30 mg/kg BID 2x/week, Study Day 6): 394.182 mm^3 | Average Tumor Volumes (AsPC-1 cells [2]; 30 mg/kg BID 2x/week, Study Day 9): 472.586 mm^3 | Average Tumor Volumes (AsPC-1 cells [2]; 30 mg/kg BID 2x/week, Study Day 13): 496.598 mm^3 | Average Tumor Volumes (AsPC-1 cells [2]; 30 mg/kg BID 2x/week, Study Day 16): 554.052 mm^3 | Average Tumor Volumes (AsPC-1 cells [2]; 30 mg/kg BID 2x/week, Study Day 20): 586.5625 mm^3 | Average Tumor Volumes (AsPC-1 cells [2]; 30 mg/kg BID 2x/week, Study Day 23): 640.49 mm^3 | Average Tumor Volumes (AsPC-1 cells [2]; 30 mg/kg BID 2x/week, Study Day 27): 679.96 mm^3 | Average Tumor Volumes (AsPC-1 cells [2]; 30 mg/kg BID 2x/week, Study Day 30): 795.11 mm^3 | Average Tumor Volumes (AsPC-1 cells [2]; 30 mg/kg BID 2x/week, Study Day 34): 862.74 mm^3 | Average Tumor Volumes (AsPC-1 cells [2]; [4]): 323.454 mm^3 | Average Tumor Volumes (AsPC-1 cells [2]; 30 mg/kg BID Daily, Study Day 6): 356.398 mm^3 | Average Tumor Volumes (AsPC-1 cells [2]; 30 mg/kg BID Daily, Study Day 9): 374.684 mm^3 | Average Tumor Volumes (AsPC-1 cells [2]; 30 mg/kg BID Daily, Study Day 13): 316.51 mm^3 | Average Tumor Volumes (AsPC-1 cells [2]; 30 mg/kg BID Daily, Study Day 16): 291.71 mm^3 | Average Tumor Volumes (AsPC-1 cells [2]; 30 mg/kg BID Daily, Study Day 20): 269.246 mm^3 | Average Tumor Volumes (AsPC-1 cells [2]; 30 mg/kg BID Daily, Study Day 23): 213.334 mm^3 | Average Tumor Volumes (AsPC-1 cells [2]; 30 mg/kg BID Daily, Study Day 27): 195.354 mm^3 | Average Tumor Volumes (AsPC-1 cells [2]; 30 mg/kg BID Daily, Study Day 30): 216.072 mm^3 | Average Tumor Volumes (AsPC-1 cells [2]; 30 mg/kg BID Daily, Study Day 34): 266.324 mm^3 | tumor regression (AsPC-1 cells [2]; 30 mg/kg BID daily, single agent, Day 34): −9% | Average Tumor Volumes (SW1990 cells; Study Day 2): 265.08 mm^3 | Average Tumor Volumes (SW1990 cells; Study Day 6): 194.42 mm^3 | Average Tumor Volumes (SW1990 cells; Study Day 9): 187.24 mm^3 | Average Tumor Volumes (SW1990 cells; Study Day 13): 241.84 mm^3 | Average Tumor Volumes (SW1990 cells; Study Day 16): 235.32 mm^3 | Average Tumor Volumes (SW1990 cells; Study Day 20): 214.98 mm^3 | Average Tumor Volumes (SW1990 cells; Study Day 23): 195.04 mm^3 | Average Tumor Volumes (SW1990 cells; Study Day −1): 362.82 mm^3 | tumor regression (SW1990 cells; 30 mg/kg BID daily, single agent, Day 23): −46% | Average Tumor Volumes (Panc 02.03; Study Day 1): 329.18 mm^3 | Average Tumor Volumes (Panc 02.03; Study Day 4): 265.246 mm^3 | Average Tumor Volumes (Panc 02.03; Study Day 8): 386.354 mm^3 | Average Tumor Volumes (Panc 02.03; Study Day 11): 392.042 mm^3 | Average Tumor Volumes (Panc 02.03; Study Day 15): 480.434 mm^3 | Average Tumor Volumes (Panc 02.03; Study Day 18): 496.496 mm^3 | Average Tumor Volumes (Panc 02.03; Study Day 22): 549.618 mm^3 | tumor growth inhibition (Panc 02.03; 30 mg/kg BID (twice per week), single agent, Day 22): 72%
